From publication PMC11173536, “2-Aryladenine Derivatives as a Potent Scaffold for Adenosine Receptor Antagonists: The 6-Morpholino Derivatives” (Molecules, 2024) come the findings set out here.

By inhibition is commonly meant the drop in the measured response relative to a control, in per cent.

The structures appear in SMILES notation. Like-named read-outs stand apart in the source and are kept apart here.

Assay [1] concerns the target T1, human A1 adenosine receptor (Homo sapiens, UniProt P30542).
T1 construct: gene ADORA1; full-length receptor
T1 sequence (P30542 1-326): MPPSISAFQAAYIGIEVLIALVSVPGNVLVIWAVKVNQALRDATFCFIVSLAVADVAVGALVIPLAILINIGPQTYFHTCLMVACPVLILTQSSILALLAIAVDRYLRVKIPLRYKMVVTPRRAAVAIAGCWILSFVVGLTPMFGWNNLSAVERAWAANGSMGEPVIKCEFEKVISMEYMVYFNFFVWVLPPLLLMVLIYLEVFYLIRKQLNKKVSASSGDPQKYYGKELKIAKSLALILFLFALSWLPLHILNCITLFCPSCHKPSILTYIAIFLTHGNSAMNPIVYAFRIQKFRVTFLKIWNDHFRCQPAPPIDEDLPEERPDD
In words: radioligand competition, [3H]DPCPX, CHO-A1 membranes. The format is binding. From the text:
radioligand competition, [3H]DPCPX, CHO-A1 membranes on human A1 adenosine receptor
(In general: In a radioligand displacement assay an active substance lowers the binding of a labelled ligand.)

Assay [2] has as its target T2, human A2B adenosine receptor (Homo sapiens, UniProt P29275).
T2 construct: gene ADORA2B; full-length receptor; membranes of HEK-293-A2B cells (Euroscreen)
T2 sequence (P29275 1-332): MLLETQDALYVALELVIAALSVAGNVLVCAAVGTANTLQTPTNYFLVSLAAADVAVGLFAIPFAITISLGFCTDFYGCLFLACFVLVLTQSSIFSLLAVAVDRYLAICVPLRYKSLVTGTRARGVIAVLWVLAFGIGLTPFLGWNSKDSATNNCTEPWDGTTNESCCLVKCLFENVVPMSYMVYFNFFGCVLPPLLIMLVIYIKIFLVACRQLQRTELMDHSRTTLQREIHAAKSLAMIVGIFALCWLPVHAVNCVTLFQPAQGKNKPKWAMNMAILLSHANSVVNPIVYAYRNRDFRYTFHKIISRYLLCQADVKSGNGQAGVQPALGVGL
In words: radioligand competition, [3H]DPCPX, HEK-293-A2B membranes. It counts as binding. The source says:
radioligand competition, [3H]DPCPX, HEK-293-A2B membranes on human A2B adenosine receptor

The target in assay [3] is T3, human A3 adenosine receptor (Homo sapiens, UniProt P0DMS8).
T3 construct: gene ADORA3; full-length receptor
T3 sequence (P0DMS8 1-318): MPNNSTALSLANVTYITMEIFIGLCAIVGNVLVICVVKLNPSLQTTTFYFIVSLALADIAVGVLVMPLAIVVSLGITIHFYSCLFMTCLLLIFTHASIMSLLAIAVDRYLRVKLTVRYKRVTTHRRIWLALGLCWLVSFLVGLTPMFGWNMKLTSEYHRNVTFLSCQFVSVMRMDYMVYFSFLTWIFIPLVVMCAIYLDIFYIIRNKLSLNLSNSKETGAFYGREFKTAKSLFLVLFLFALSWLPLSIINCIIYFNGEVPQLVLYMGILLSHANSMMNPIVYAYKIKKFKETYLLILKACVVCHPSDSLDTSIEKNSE
In words: radioligand competition, [3H]NECA, HeLa-A3 membranes. The format is binding. The source says: radioligand competition, [3H]NECA, HeLa-A3 membranes on human A3 adenosine receptor

Assay [4] deals with T1, human A1 adenosine receptor. Kind of assay: radioligand competition, [3H]DPCPX, CHO-A1 membranes. The format is binding. This is another data set of the same source.
In assay [5] the target is T4, human A2A adenosine receptor (Homo sapiens, UniProt P29274).
T4 construct: gene ADORA2A; full-length receptor; membranes of HeLa-A2A cells
T4 sequence (P29274 whole entry): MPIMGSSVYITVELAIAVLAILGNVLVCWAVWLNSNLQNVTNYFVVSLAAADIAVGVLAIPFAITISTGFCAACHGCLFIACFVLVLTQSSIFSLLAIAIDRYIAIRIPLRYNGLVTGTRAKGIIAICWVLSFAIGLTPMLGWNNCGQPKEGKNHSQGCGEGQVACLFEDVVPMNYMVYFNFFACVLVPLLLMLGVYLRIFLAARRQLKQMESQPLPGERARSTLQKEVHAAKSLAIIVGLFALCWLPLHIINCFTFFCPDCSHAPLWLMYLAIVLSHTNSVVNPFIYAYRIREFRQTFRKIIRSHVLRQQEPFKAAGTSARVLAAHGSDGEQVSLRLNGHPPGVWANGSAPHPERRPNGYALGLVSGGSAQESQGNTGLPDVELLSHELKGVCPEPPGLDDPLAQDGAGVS
Kind of assay: radioligand competition, [3H]ZM241385, HeLa-A2A membranes. It counts as binding. From the text:
radioligand competition, [3H]ZM241385, HeLa-A2A membranes on human A2A adenosine receptor

For assay [6], the target named is T3, human A3 adenosine receptor. Kind of assay: cAMP enzyme immunoassay, antagonism of NECA, CHO-A3 cells. The settings on record: read-out: Potency (pKB) / A3 (converted). The format is cell-based. From the text:
cAMP enzyme immunoassay, antagonism of NECA, CHO-A3 cells on human A3 adenosine receptor

Assay [7] deals with T1, human A1 adenosine receptor. In words: cAMP enzyme immunoassay, antagonism of NECA, CHO-A1 cells. The format is cell-based. As to conditions: read-out: Potency (pKB) / A1 (converted). From the text:
cAMP enzyme immunoassay, antagonism of NECA, CHO-A1 cells on human A1 adenosine receptor

In turn, `Cn1cnc2c(N3CCOCC3)nc(-c3ccc(Cl)cc3)nc21` [3f, 4-(2-(4-Chlorophenyl)-9-methyl-9H-purin-6-yl)morpholine] came in with an inhibition at 10 µM in assay [1] of 37 ± 4%.
`Oc1ccccc1-c1nc(N2CCOCC2)c2nc[nH]c2n1` [3n, 2-(6-Morpholino-9H-purin-2-yl)phenol]: the Ki in assay [2] was 138 nM; in assay [3], 257 nM; in assay [4] (read-out: A1 (converted)), 64.6 nM; in assay [5], 107 nM.
`Cn1cnc2c(N3CCOCC3)nc(-c3cccc(O)c3O)nc21` [3g, 3-(9-Methyl-6-morpholino-9H-purin-2-yl)benzene-1,2-diol] yielded an inhibition at 10 µM in assay [1] of 33 ± 0.3%.
`COc1ccccc1-c1nc(N2CCOCC2)c2ncn(C)c2n1` [3b, 4-(2-(2-Methoxyphenyl)-9-methyl-9H-purin-6-yl)morpholine] displayed an inhibition at 10 µM in assay [1] of 22 ± 1%.
On to `Cn1cnc2c(N3CCOCC3)nc(-c3cccc(O)c3)nc21` [3e, 3-(9-Methyl-6-morpholino-9H-purin-2-yl)phenol], for which the Ki in assay [4] (read-out: A1 (converted)) was 692 nM.
In turn, `Cn1cnc2c(N3CCOCC3)nc(-c3ccccc3Cl)nc21` [3a, 4-(2-(2-Chlorophenyl)-9-methyl-9H-purin-6-yl)morpholine] registered an inhibition at 10 µM in assay [1] of 36 ± 1%.
Turning to `Clc1cccc(-c2nc(N3CCOCC3)c3nc[nH]c3n2)c1` [3o, 4-(2-(3-Chlorophenyl)-9H-purin-6-yl)morpholine], the Ki was 75.9 nM in assay [2], 39.8 nM in assay [3], 17.8 nM in assay [4] (read-out: A1 (converted)) and 46.8 nM in assay [5].
Regarding `Clc1ccc(Cl)c(-c2nc(N3CCOCC3)c3nc[nH]c3n2)c1` [3t, 4-(2-(2,5-Dichlorophenyl)-9H-purin-6-yl)morpholine], the values for the Ki in assay [3] and in assay [4] (read-out: A1 (converted)) were 69.2 nM and 1070 nM, respectively.
Regarding `COc1ccc(F)c(-c2nc(N3CCOCC3)c3nc[nH]c3n2)c1` [3v, 4-(2-(2-Fluoro-5-methoxyphenyl)-9H-purin-6-yl)morpholine], the Ki in assay [2] is 398 nM; in assay [3] it was 14.8 nM; in assay [4] (read-out: pKi (converted)) it was greater than 10000 nM. In assay [6], the Kb is 5.75 nM.
As to `Cn1cnc2c(N3CCOCC3)nc(-c3ccccc3O)nc21` [3c, 2-(9-Methyl-6-morpholino-9H-purin-2-yl)phenol], the results for the Ki in assay [2], in assay [4] (read-out: A1 (converted)) and in assay [5] were 2000 nM, 309 nM and 339 nM, respectively.
In the case of `Cn1cnc2c(N3CCOCC3)nc(-c3cc(Cl)ccc3O)nc21` [3k, 4-Chloro-2-(9-methyl-6-morpholino-9H-purin-2-yl)phenol], the Ki in assay [4] (read-out: A1 (converted)) was 123 nM; in assay [5] it was 708 nM.
In turn, `Cn1cnc2c(N3CCOCC3)nc(-c3cc(Cl)ccc3Cl)nc21` [3h, 4-(2-(2,5-Dichlorophenyl)-9-methyl-9H-purin-6-yl)morpholine] had an inhibition at 10 µM in assay [1] of 41 ± 2%.
As to `Fc1ccc(F)c(-c2nc(N3CCOCC3)c3nc[nH]c3n2)c1` [3x, 4-(2-(2,5-Difluorophenyl)-9H-purin-6-yl)morpholine], the Ki in assay [2] is 36.3 nM; in assay [3] it was 23.4 nM; in assay [4] (read-out: A1 (converted)) it was 5.89 nM; in assay [5], 70.8 nM. In addition, in assay [7], the Kb was 5.62 nM.
In assay [3], `Clc1ccc(-c2nc(N3CCOCC3)c3nc[nH]c3n2)cc1Cl` [3r, 4-(2-(3,4-Dichlorophenyl)-9H-purin-6-yl)morpholine] displayed a Ki of 70.8 nM.
Regarding `Cn1cnc2c(N3CCOCC3)nc(-c3cc(F)ccc3F)nc21` [3m, 4-(2-(2,5-Difluorophenyl)-9-methyl-9H-purin-6-yl)morpholine], the Ki in assay [4] (read-out: A1 (converted)) is 525 nM.
Turning to `Cn1cnc2c(N3CCOCC3)nc(-c3cccc(Cl)c3)nc21` [3d, 4-(2-(3-Chlorophenyl)-9-methyl-9H-purin-6-yl)morpholine], the Ki in assay [4] (read-out: A1 (converted)) was 158 nM.
With `COc1ccc(O)c(-c2nc(N3CCOCC3)c3ncn(C)c3n2)c1` [3j, 4-Methoxy-2-(9-methyl-6-morpholino-9H-purin-2-yl)phenol], the Ki was 1660 nM in assay [2], 525 nM in assay [4] (read-out: A1 (converted)) and 1230 nM in assay [5].
Consider `Cn1cnc2c(N3CCOCC3)nc(-c3cc(O)ccc3O)nc21` [3i, 2-(9-Methyl-6-morpholino-9H-purin-2-yl)benzene-1,4-diol], for which the Ki in assay [2] was 479 nM; in assay [4] (read-out: A1 (converted)), 437 nM; in assay [5], 562 nM.
For `Clc1ccc(-c2nc(N3CCOCC3)c3nc[nH]c3n2)cc1` [3q, 4-(2-(4-Chlorophenyl)-9H-purin-6-yl)morpholine], the Ki is 33.9 nM in assay [3] and 95.5 nM in assay [4] (read-out: A1 (converted)).
The molecule `COc1ccc(F)c(-c2nc(N3CCOCC3)c3ncn(C)c3n2)c1` [3l, 4-(2-(2-Fluoro-5-methoxyphenyl)-9-methyl-9H-purin-6-yl)morpholine] registered a Ki in assay [3] of 5250 nM.
Regarding `Oc1ccc(Cl)cc1-c1nc(N2CCOCC2)c2nc[nH]c2n1` [3u], the Ki in assay [2] was 617 nM; in assay [4] (read-out: A1 (converted)) it was 89.1 nM.
With `FC(F)(F)c1cc(-c2nc(N3CCOCC3)c3nc[nH]c3n2)ccc1Cl` [3s, 4-(2-(4-Chloro-3-(trifluoromethyl)phenyl)-9H-purin-6-yl)morpholine], in assay [3], the Ki is 955 nM.
For the molecule `Oc1cccc(-c2nc(N3CCOCC3)c3nc[nH]c3n2)c1` [3p, 3-(6-Morpholino-9H-purin-2-yl)phenol], the values for the Ki in assay [3], in assay [4] (read-out: A1 (converted)) and in assay [5] were 468 nM, 32.4 nM and 550 nM, respectively.
